Experimental findings from patent US6492401B1, “N-[(substituted five-membered di- or triaza diunsaturated ring)carbonyl] guanidine derivatives for the treatment of ischemia” (Pfizer, Inc., priority 1998, dated 2002) are described below.

As usually defined, the IC50 is the concentration at which inhibition is half-maximal. Read a low IC50 as higher potency.

This test addresses T1, human NHE-1 (Homo sapiens, UniProt P19634).
T1 construct: expressed in transfected cells; host or cells: fibroblasts stably expressing human NHE-1 (cell line per Counillon et al., Mol. Pharmacol. 44:1041-1045, 1993)
Kind of test: Measurement of human NHE-1 inhibitory activity (NHE-mediated recovery of intracellular pH after acidification, BCECF fluorescence). In kind it is cell-based. The following applies: fibroblasts stably expressing human NHE-1.

Molecules are shown by their SMILES.

T1 sequence (P19634 whole entry): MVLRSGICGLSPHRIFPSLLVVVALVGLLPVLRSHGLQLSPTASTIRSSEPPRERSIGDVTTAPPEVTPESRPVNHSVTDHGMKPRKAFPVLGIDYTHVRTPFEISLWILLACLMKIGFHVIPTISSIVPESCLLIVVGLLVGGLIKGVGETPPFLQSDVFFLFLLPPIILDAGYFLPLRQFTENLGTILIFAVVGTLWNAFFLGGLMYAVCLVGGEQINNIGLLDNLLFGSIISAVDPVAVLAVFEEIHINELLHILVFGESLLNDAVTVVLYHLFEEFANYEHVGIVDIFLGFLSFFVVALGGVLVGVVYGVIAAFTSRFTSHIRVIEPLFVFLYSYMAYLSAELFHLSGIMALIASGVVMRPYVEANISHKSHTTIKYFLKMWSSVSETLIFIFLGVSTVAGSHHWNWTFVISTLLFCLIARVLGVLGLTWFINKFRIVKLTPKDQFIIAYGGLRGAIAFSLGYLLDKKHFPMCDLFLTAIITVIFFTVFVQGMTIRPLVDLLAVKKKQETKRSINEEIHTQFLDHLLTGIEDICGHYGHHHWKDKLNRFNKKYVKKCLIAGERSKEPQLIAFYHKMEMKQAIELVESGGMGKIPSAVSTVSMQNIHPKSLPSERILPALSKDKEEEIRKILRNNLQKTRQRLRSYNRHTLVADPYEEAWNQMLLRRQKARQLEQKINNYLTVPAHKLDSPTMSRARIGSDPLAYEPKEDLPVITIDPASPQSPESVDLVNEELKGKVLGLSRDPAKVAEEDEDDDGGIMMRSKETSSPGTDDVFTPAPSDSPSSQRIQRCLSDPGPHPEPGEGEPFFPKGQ
Protocol: Methodologies for measurement of human NHE-1 activity and inhibitor potency are based on those published by Watson et al., Am. J. Physiol., 24:G229-G238, 1991), where NHE-mediated recovery of intracellular pH is measured following intracellular acidification. Thus, fibroblasts stably expressing human NHE-1 (Counillon, L. et al., Mol. Pharmacol., 44:1041-1045 (1993) are plated onto collagen coated 96 well plates (50,000/well) and grown to confluence in growth media (DMEM high glucose, 10% fetal bovine serum, 50 u/ml penicillin and streptomycin). Confluent plates are incubated for 30 min at 37° C. with the pH sensitive fluorescent probe BCECF (5 μM; Molecular Probes, Eugene, Oreg.). BCECF loaded cells are incubated for 30 min at 37° C. in acid loading media (70 mM choline chloride, 50 mM NHCl4, 5 mM KCl, 1 mM MgCl2, 1.8 mM CaCl2, 5 mM glucose, 10 mM HEPES, pH 7.5), and then placed in a Fluorescent Imaging Plate Reader (Molecular Devices, CA). BCECF fluorescence is monitored using excitation and emission wavelengths of 485 nm and 525 nM, respectively. Intracellular acidification is initiated via rapid replacement of acid loading media with recovery media (120 mM NaCl, 5 mM KCl, 1 mM MgCl2, 1.8 mM CaCl2, 5 mM glucose, 10 mM HEPES, pH 7.5)±test compound, and NHE-mediated recovery of intracellular pH is monitored as the subsequent time-dependent increase BCECF fluorescence.

`CC(C)c1ccc(C(=O)NC(=N)N)cc1S(C)(=O)=O` [HOE-642] registered an IC50 of 500 nM.
